The text below walks through data of US20090012079A1, “Triazolopyridine Compounds” (priority 2006, published 2009).

The structures appear in SMILES notation.

This experiment has as its system TNFα release from human peripheral blood mononuclear cells. Description: TNFα screen: inhibition of LPS-stimulated TNFα release from human peripheral blood mononuclear cells (ELISA). The class given is cell-based. The settings on record: human PBMC, LPS stimulation, 18 hours incubation, TNFα in supernatant by ELISA; read-out: TNF IC50. How it is done: Venous blood is collected from healthy volunteers and the mononuclear cells purified by centrifugation through Histopaque (Ficoll) cushions. TNFα production from these cells is stimulated by addition of lipopolysaccharide. After 18 hours incubation in the presence of LPS, the cell supernatant is removed and the concentration of TNFα in the supernatant determined by ELISA. Addition of the compounds of the invention reduces the amount of TNFα produced. An IC50 is determined which is equal to the concentration of compound that gives 50% inhibition of TNFα production as compared to the LPS stimulated control wells.
Background: An ELISA detects its analyte on a solid surface through an enzyme-linked reagent.

For `CC(C)(C)c1cc(NC(=O)NCc2ccccc2Sc2ccc3nnc(-c4ccc(CN5CCOCC5)cc4)n3c2)n(-c2ccc(Cl)c(O)c2)n1` [Example 7, 1-[5-tert-Butyl-2-(4-chloro-3-hydroxyphenyl)-2H-pyrazol-3-yl]-3-{2-[3-(4-morpholin-4-ylmethylphenyl)-[1,2,4]triazolo[4,3-a]pyridin-6-ylsulfanyl]benzyl}urea], the IC50 turned out to be 3 nM.

For the compound `CN(C)Cc1cccc(-n2nc(C(C)(C)C)cc2NC(=O)NCc2ccccc2Sc2ccc3nnc(-c4cc(O)ccc4Cl)n3c2)c1` [Example 4, 1-[5-tert-Butyl-2-(3-dimethylaminomethylphenyl)-2H-pyrazol-3-yl]-3-{2-[3-(2-chloro-5-hydroxy-phenyl)-[1,2,4]triazolo[4,3-a]pyridin-6-ylsulfanyl]benzyl}urea], the IC50 came out at 8.2 nM.

As to `CC(C)(C)c1cc(NC(=O)NCc2ccccc2Sc2ccc3nnc(-c4cccc(OCCN5CCOCC5)c4)n3c2)n(-c2ccc(O)c(Cl)c2)n1` [Example 9, 1-[5-tert-Butyl-2-(3-chloro-4-hydroxyphenyl)-2H-pyrazol-3-yl]-3-(2-{3-[3-(2-morpholin-4-ylethoxy)phenyl]-[1,2,4]triazolo[4,3-a]pyridin-6-ylsulfanyl}benzyl)urea], the IC50 was 5.6 nM.

Turning to `CC(C)(C)c1cc(NC(=O)NCc2ccccc2Sc2ccc3nnc(-c4cc(O)ccc4Cl)n3c2)n(-c2cccc(CN3CCOCC3)c2)n1` [Example 6, 1-[5-tert-Butyl-2-(3-morpholin-4-ylmethylphenyl)-2H-pyrazol-3-yl]-3-{2-[3-(2-chloro-5-hydroxyphenyl)-[1,2,4]triazolo[4,3-a]pyridin-6-ylsulfanyl]benzyl}urea], the IC50 is 1.8 nM.

On to `CN(C)Cc1cccc(-n2nc(C(C)(C)C)cc2NC(=O)NCc2ccccc2Sc2ccc3nnc(-c4cc(Cl)ccc4O)n3c2)c1` [Example 3, 1-[5-tert-Butyl-2-(3-dimethylaminomethylphenyl)-2H-pyrazol-3-yl]-3-(2-[3-(5-chloro-2-hydroxyphenyl)-[1,2,4]triazolo[4,3-a]pyridin-6-ylsulfanyl]benzyl)urea], for which the IC50 amounted to 4 nM.

On to `CN(C)CCOc1cccc(-n2nc(C(C)(C)C)cc2NC(=O)NCc2ccccc2Sc2ccc3nnc(-c4cc(Cl)ccc4O)n3c2)c1` [Example 1, 1-{5-tert-Butyl-2-[3-(2-dimethylaminoethoxy)phenyl]-2H-pyrazol-3-yl}-3-{2-[3-(5-chloro-2-hydroxyphenyl)-[1,2,4]triazolo[4,3-a]pyridin-6-ylsulfanyl]benzyl}urea], for which the IC50 is 5.6 nM.

Regarding `CSCC(C)(C)c1cc(NC(=O)NCc2ccccc2Sc2ccc3nnc(-c4cc(O)ccc4Cl)n3c2)n(-c2cccc(CN(C)C)c2)n1` [Example 2, 1-{2-[3-(2-Chloro-5-hydroxy-phenyl)-[1,2,4]triazolo[4,3-a]pyridin-6-ylsulfanyl]benzyl}-3-[2-(3-dimethylaminomethyl-phenyl)-5-(1,1-dimethyl-2-methylsulfanylethyl)-2H-pyrazol-3-yl]urea], the IC50 is 2.9 nM.

As to `CSCC(C)(C)c1cc(NC(=O)NCc2ccccc2Sc2ccc3nnc(-c4cc(Cl)ccc4O)n3c2)n(-c2cccc(CN(C)C)c2)n1` [Example 11, 1-{2-[3-(5-Chloro-2-hydroxy-phenyl)-[1,2,4]triazolo[4,3-a]pyridin-6-ylsulfanyl]benzyl}-3-[2-(3-dimethylaminomethyl-phenyl)-5-(1,1-dimethyl-2-methylsulfanylethyl)-2H-pyrazol-3-yl]urea], the IC50 stood at 4.9 nM.

As to `CC(C)(C)c1cc(NC(=O)NCc2ccccc2Sc2ccc3nnc(-c4ccc(CN5CCOCC5)cc4)n3c2)n(-c2ccc(O)c(Cl)c2)n1` [Example 8, 1-[5-tert-Butyl-2-(3-chloro-4-hydroxyphenyl)-2H-pyrazol-3-yl]-3-{2-[3-(4-morpholin-4-ylmethylphenyl)-[1,2,4]triazolo[4,3-a]pyridin-6-ylsulfanyl]benzyl}urea], the IC50 was 5.5 nM.

As for `CC(C)(C)c1cc(NC(=O)NCc2ccccc2Sc2ccc3nnc(-c4cccc(OCCN5CCOCC5)c4)n3c2)n(-c2ccc(Cl)c(O)c2)n1` [Example 10, 1-[5-tert-Butyl-2-(4-chloro-3-hydroxyphenyl)-2H-pyrazol-3-yl]-3-(2-{3-[3-(2-morpholin-4-yl-ethoxy)phenyl]-[1,2,4]triazolo[4,3-a]pyridin-6-ylsulfanyl}benzyl)urea], the IC50 is 4.3 nM.

As for `CC(C)(C)c1cc(NC(=O)NCc2ccccc2Sc2ccc3nnc(-c4cc(Cl)ccc4O)n3c2)n(-c2cccc(CN3CCOCC3)c2)n1` [Example 5, 1-[5-tert-Butyl-2-(3-morpholin-4-ylmethylphenyl)-2H-pyrazol-3-yl]-3-{2-[3-(5-chloro-2-hydroxyphenyl)-[1,2,4]triazolo[4,3-a]pyridin-6-ylsulfanyl]benzyl}urea], the IC50 was determined as 2.5 nM.

A word on the IC50: it is the point on the concentration scale where inhibition reaches its midpoint.
